The text below walks through data of US20260306428A1 (The Trustees of Indiana University, priority 2023, published 2026).

For data set [1] the following is noted: cited from earlier work.
The next data set concerns impacted chondrocytes. The data set is described as follows: Chondrocyte viability by live/dead staining in impacted cartilage. The data set is classed as cell-based, bovine. To be noted: for rescue of chondrocyte viability following AMD: AMPK activation (EX229 1 μM and 10 μM) or SIRT1 activation (SRT1720 1 μM and 5 μM); for prevention of impact-induced chondrocyte death: EX229 1 μM and 10 μM, SRT1720 1 μM and 5 μM. How it is done: Bovine cartilage was cultured with metformin following an impact from a drop tower device.
As a preliminary assessment, live/dead staining was evaluated in impacted bovine cartilage treated with specific pharmacological activators of AMPK and SIRT1 or left untreated with appropriate vehicle (DMSO).
One half of the explant was assessed for cell viability via live/dead staining, and the other half was stained with MitoTracker Green and TMRM to evaluate mitochondrial health.

Data set [2] concerns Complex I. To be noted: in vivo; cited from earlier work.
Another data set relates to AMPK. Conditions: role: activator; cited from earlier work.
For data set [3] the following is noted: oral, anti-diabetic treatment; cited from earlier work.
The next data set deals with caspase 3/7. The data set is described as follows: Apoptosis via activated caspase 3/7 signalling (CellEvent) in sublethally impacted cartilage explants. Format: cell-based, bovine. Conditions: sublethal impact, 24 hr post-impact. The text has this:
(§1) Bovine cartilage explants were impacted with sublethal force to evaluate the injury response in viable chondrocytes.
(§2) Apoptosis and Oxidative Stress: Cartilage was removed from subchondral bone and stained for apoptosis via activated caspase 3/7signalling (CellEvent, Invitrogen) or ROS (CellRox, Invitrogen) 24 hr post-impact, as shown in FIG. 1A and FIG. 1B, respectively.

Data set [4] has as its system reactive oxygen species (ROS). The data set is described as follows: Oxidative stress / ROS staining (CellRox) in sublethally impacted cartilage explants. Conditions: sublethal impact, 24 hr post-impact, 10 mM. The data set is classed as cell-based, bovine.
Description: as §1, §2

Data set [5] relates to mitochondria in chondrocytes. The data set is described as follows: Mitochondrial function (TMRM / MitoTracker Green red:green ratio) in cartilage explants. The data set is classed as cell-based, bovine.
For a further data set, the system named is SIRT1. To be noted: role: activator; cited from earlier work.
Data set [6] concerns Complex I. Conditions: role: inhibitor; cited from earlier work.
Setting [7] is: impacted, EX229 1 μM and 10 μM (FIG. 4A), SRT1720 1 μM and 5 μM (FIG. 4B).

As for `Cc1ccc(Oc2nc3cc(-c4ccc5c(ccn5C)c4)c(Cl)cc3[nH]2)cc1C(=O)O` [EX229], the “solubility in aqueous solutions” value in [1] is “low solubility”. Moreover, in the data set with impacted chondrocytes (impacted), the “rescue of chondrocyte viability following AMD” value was “rescues the AMD-induced decrease in chondrocyte viability” and the “prevention of impact-induced chondrocyte death” value is “neither of these activators completely prevented impact-induced chondrocyte death”. For the same compound, the “cell viability (live/dead staining)” value in the data set on impacted chondrocytes (setting [7]) is recorded as “improved cell viability in impacted chondrocytes in a dose-dependent manner”.
`O=C(Nc1ccccc1-c1cn2c(CN3CCNCC3)csc2n1)c1cnc2ccccc2n1` [SRT1720]: in data set [1], the “solubility in aqueous solutions” value is “low solubility”. For the same compound, in the data set on impacted chondrocytes (impacted), the “rescue of chondrocyte viability following AMD” value is reported as “rescues chondrocyte viability following AMD” and the “prevention of impact-induced chondrocyte death” value is recorded as “neither of these activators completely prevented impact-induced chondrocyte death”. In the data set on impacted chondrocytes (setting [7]), the “cell viability (live/dead staining)” value is listed as “improved cell viability in impacted chondrocytes in a dose-dependent manner”.
Consider `CCC1(CCC(C)C)C(=O)NC(=O)NC1=O` [amobarbital], for which the “block of mitochondrial electron transport at complex I” value in the data set with Complex I [2] was “blocks mitochondrial electron transport at complex I to prevent chondrocyte dysfunction and apoptosis”.
Take `CN(C)C(=N)NC(=N)N.Cl` [metformin, 1,1-dimethylbiguanide hydrochloride]: in the data set with AMPK, the “activation of AMPK” value is given as “activates AMPK”. Moreover, in data set [3], the side effects entry is “nausea, vomiting, diarrhoea, and stomach pain”. Moreover, the “apoptotic signalling (caspase 3/7)” value in the data set on caspase 3/7 (1 mM) is given as “only partially reduced apoptotic signalling”. Also, in the data set on caspase 3/7 (1 mM, 5 mM and 10 mM), the “apoptosis (caspase 3/7 signalling)” value is recorded as “dose-dependent decrease”. For the same compound, in the data set with caspase 3/7 (10 mM), the “apoptosis (caspase 3/7)” value is on record as “completely suppressed apoptosis”. For the same compound, the “oxidative stress (ROS)” value in data set [4] is given as “full suppression of oxidative stress”. In addition, the “cell viability (live/dead staining)” value is given as “improved cell viability” in the data set with impacted chondrocytes (drop tower impact, 24 hr post-impact, 10 mM) and “completely rescue impacted chondrocytes” in the data set on impacted chondrocytes (drop tower impact, 24 hr post-impact, 50 mM). Besides, the “cell viability (live/dead staining), data not shown” value with impacted chondrocytes (impacted bovine cartilage, 125 mM, trends similar to mitochondrial function) was “showed similar trends”. For the same compound, the “mitochondrial dysfunction in impacted chondrocytes” value in [5] (impacted explants, 24 hours post-impact, 10 mM and 50 mM) is “rescues mitochondrial dysfunction in impacted chondrocytes in a dose-dependent manner”. In data set [5] (impacted, 125 mM, vs untreated impacted chondrocytes), the “mitochondrial function of impacted chondrocytes” value was “not significantly different from that of untreated impacted chondrocytes”. Further, in [5] (non-impacted, 125 mM), the “mitochondrial function of non-impacted chondrocytes” value was “slightly declined”. Moreover, in the data set with SIRT1, the “activation of SIRT1” value is “activates AMPK and SIRT1”. Further, the “inhibition of Complex I” value in the data set with Complex I [6] is given as “inhibiting Complex I”.
